Non-standard residues stand in square brackets, D forms with d. *: point of attachment. X4 = ((1S)-1-Carboxy-3-methylbutyl)carbamoyl, CC(C)C[C@H](NC(=O)*)C(=O)O; X6 = ((1S)-1-carboxy-2-hydroxyethyl)carbamoyl, O=C(O)[C@H](CO)NC(=O)*; ((1S)-1-Carboxyethyl)carbamoyl = C[C@H](NC(=O)*)C(=O)O; 4Pal = N[C@@H](Cc1ccncc1)C(=O)O; Cha = N[C@@H](CC1CCCCC1)C(=O)O; Aib = CC(C)(N)C(=O)O
How the values were obtained:
[1] = tested on: male C57BL/6J mouse; experiment: 3-Day Continuous Subcutaneous Administration Test-2 (food intake suppressing activity); assay type: in vivo; conditions: 0.03 mg/kg/day, subcutaneous Alzet pump, food consumption as of 2 days after start; versus solvent (50% DMSO) control group
Protocol: (5) Test Method: 3-Day Continuous Subcutaneous Administration Test-2
The food intake suppressing activity of the compound of the present invention was examined by the following method.
The test compound was dissolved in a solvent (50% DMSO) so that sustained release would occur at 0.03 mg/kg/day, and the solution was filled in the Alzet Pump (DURECT Corporation, model: 1003D). After the filling, the pump was immersed in physiological saline for priming, and then used. The pump was embedded by the following method. Each male C57BL/6J mouse at 9-10 weeks of age (25° C., allowed to take food and water ad libitum; 12-hour bright-12-hour dark cycle) was anesthetized; the skin in the upper back thereof was incised, and the above-mentioned pump was embedded subcutaneously; the incision was sutured. After weighing, this mouse was returned to the rearing cage (reared alone), and given previously weighed food; food consumption as of 2 days after the start of administration was measured. The food consumption was calculated by subtracting the amount of remaining food from the weight of the food given on the day of the start of administration. From the food consumption obtained, the food intake suppression rate (%) of each test compound was calculated using the following the formula.
A group receiving administration of the aforementioned solvent alone was the control group.
Food intake suppression rate (%): (Food consumption for control group−food consumption for test compound administration group)/food consumption for control group×100

[2] = target: T1, human Y2 receptor (Homo sapiens, UniProt P49146); experiment: Receptor Binding Assay (RBA) for Human Y2, [125I]-PYY displacement on hY2R/CHO membrane fraction; conditions: IC50 of test compound/IC50 of PYY(3-36) (PYY(3-36) taken as 1)
T1 construct: expressed in transfected cells; membrane fraction
T1 sequence (P49146 1-381): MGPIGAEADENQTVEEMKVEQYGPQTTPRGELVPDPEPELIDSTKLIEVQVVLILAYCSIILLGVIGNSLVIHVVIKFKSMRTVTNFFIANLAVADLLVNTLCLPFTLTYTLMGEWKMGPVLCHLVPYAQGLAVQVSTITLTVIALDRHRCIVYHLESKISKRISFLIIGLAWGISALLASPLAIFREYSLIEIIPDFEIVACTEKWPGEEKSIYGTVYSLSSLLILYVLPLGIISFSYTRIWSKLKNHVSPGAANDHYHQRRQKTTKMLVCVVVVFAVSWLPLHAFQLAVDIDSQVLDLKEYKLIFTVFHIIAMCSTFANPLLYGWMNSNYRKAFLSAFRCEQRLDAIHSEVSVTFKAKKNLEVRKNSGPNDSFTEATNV
Summary of the method: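 hY2R stably expressed in CHO/dhfr− cells; membrane fraction prepared from cells disrupted in 10 mM NaHCO3, 5 mM EDTA buffer with protease inhibitors. Binding read as displacement of [125I]-PYY.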

[3] = target: T1, human Y2 receptor; experiment: Human Y2 Receptor G Protein Binding Assay (GBA), [35S]GTPγS; assay type: biochemical; conditions: EC50 of test compound/EC50 of PYY(3-36) (PYY3-36 taken as 1), hY2R/CHO membrane fraction
Summary of the method: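 Agonism measured as [35S]GTPγS binding, read by GF/C filtration and scintillation counting after 120 min at room temperature, using human Y2 membranes at 1 μg protein/mL in pH 7.4 Tris/MgCl2/NaCl/GDP buffer. Compound serially diluted 100 μM–1 nM; EC50 normalized to PYY(3-36) (ratio = compound/PYY).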

[4] = tested on: male C57EL/6J mice; experiment: 3-Days Continuous Subcutaneous Administration Test-1 (food intake suppressing activity); assay type: in vivo, mouse; conditions: 0.03 mg/kg/day, subcutaneous Alzet pump, food consumption over 3 days; relative to food intake suppression rate for PYY(3-36) (1 mg/kg/day) taken as 100%
Summary of the method: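 Male […] mice, 12-13 weeks, received compound at 0.03 mg/kg/day by subcutaneous osmotic pump (50% DMSO vehicle), housed singly with free food access. Food consumed over 3 days measured; suppression expressed relative to PYY(3-36) (1 mg/kg/day) set as 100%.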

| RBA IC50 Ratio [2] | GBA EC50 Ratio [3] | Substance | food intake suppression rate (%) [1] | food intake suppression rate (%) [4] |
| --- | --- | --- | --- | --- |
| – | – | 4-Imidazolecarbonyl-[Aib24,31, Iva25, Pya(4)26, Cha27,36, Leu(Me)28, Lys(Ac)30]-PYY(23-36) [compound No. 368] | 34.9% | – |
| – | – | 4-Imidazolecarbonyl-[D-Hyp24, Iva25, Pya(4)26, Cha27,36, Iva28, Lys30, D-Iva31]-PYY(23-36) [compound No. 372] | 27.2% | – |
| – | – | 4-Imidazolecarbonyl-[D-Hyp24, Iva25, Pya(4)26, Cha27,36, Leu(Me)28, Har30, Aib31]-PYY(23-36) [compound No. 367] | 24.0% | – |
| – | – | 4-Imidazolecarbonyl-[D-Hyp24, Iva25, Pya(4)26, Cha27,36, Leu(Me)28, Lys(Ac)30, Aib31]-PYY(23-36) [compound No. 362] | 54.2% | – |
| – | – | 4-Imidazolecarbonyl-[D-Hyp24, Iva25, Pya(4)26, Cha27,36, Leu(Me)28, Lys(Ac)30, D-Iva31]-PYY(23-36) [compound No. 369] | 47.8% | – |
| – | – | 4-Imidazolecarbonyl-[D-Hyp24, Iva25, Pya(4)26, Cha27, Leu(Me)28, Lys30, Aib31, Phe(2,6-Me2)36]-PYY(23-36) [compound No. 360] | 36.7% | – |
| – | – | 4-Imidazolecarbonyl-[D-Hyp24, Pya(4)26, Cha27,36, Iva28, Lys(Ac)30, D-Iva31]-PYY(23-36) [compound No. 374] | 22.6% | – |
| – | – | 4-Imidazolecarbonyl-[D-Hyp24, Pya(4)26, Cha27,36, Leu(Me)28, Lys30, Aib31]-PYY(23-36) [compound No. 370] | 17.9% | – |
| – | – | 4-Imidazolecarbonyl-[D-Pro24, Iva25, Pya(4)26, Cha27,36, Leu(Me)28, Lys(Ac)30, Aib31]-PYY(23-36) [compound No. 365] | 37.8% | – |
| – | – | 4-Imidazolecarbonyl-[D-Pro24, Pya(4)26, Cha27,36, Iva28, Lys30, Aib31]-PYY(23-36) [compound No. 366] | 32.9% | – |
| – | – | 4-Imidazolecarbonyl-[D-Pro24, Pya(4)26, Cha27,36, Iva28, Lys(Ac)30, Aib31]-PYY(23-36) [compound No. 371] | 18.6% | – |
| – | – | Ac-[Glu23, D-Pro24, Iva25, Pya(4)26, Cha27,36, Leu(Me)28, Lys30, Aib31]-PYY(23-36) [compound No. 363] | 27.7% | – |
| – | – | Carbamoyl-[D-Hyp24, Iva25, Pya(4)26, Cha27,36, Leu(Me)28, Lys30, Aib31]-PYY(23-36) [compound No. 364] | 37.3% | – |
| – | – | Thp(4)-CH2NHCO-[D-Hyp24, Iva25, Pya(4)26, Cha27,36, Leu(Me)28, Lys30, Aib31]-PYY(23-36) [compound No. 359] | 43.4% | – |
| – | – | Thp(4)-CO-[D-Hyp24, Iva25, Pya(4)26, Cha27,36, Leu(Me)28, Lys30, Aib31]-PYY(23-36) [compound No. 361] | 23.3% | – |
| – | – | Thp(4)-NHCO-[D-Hyp24, Iva25, Pya(4)26, Cha27,36, Leu(Me)28, Lys30, Aib31]-PYY(23-36) [compound No. 358] | 62.5% | – |
| 0.82 | 0.82 | [(1S)-1-Carboxy-3-methylbutyl]carbamoyl-[D-Pro24, Pya(4)26, Cha27,36, Aib28,31, Lys30]-PYY(23-36) (X4-S[dP]R[4Pal][Cha][Aib]NK[Aib]TRQR[Cha]-NH2; SMILES CC(C)C[C@H](NC(=O)N[C@@H](CO)C(=O)N1CCC[C@@H]1C(=O)N[C@@H](CCCNC(=N)N)C(=O)N[C@@H](Cc1ccncc1)C(=O)N[C@@H](CC1CCCCC1)C(=O)NC(C)(C)C(=O)N[C@@H](CC(N)=O)C(=O)N[C@@H](CCCCN)C(=O)NC(C)(C)C(=O)N[C@H](C(=O)N[C@@H](CCCNC(=N)N)C(=O)N[C@@H](CCC(N)=O)C(=O)N[C@@H](CCCNC(=N)N)C(=O)N[C@@H](CC1CCCCC1)C(N)=O)[C@@H](C)O)C(=O)O) [compound No. 271] | – | 28% |
| 0.93 | 1.3 | [(1S)-1-Carboxy-3-methylbutyl]carbamoyl-[Gln23, D-Pro24, Pya(4)26, Cha27,36, Aib28,31, Lys30]-PYY(23-36) (X4-Q[dP]R[4Pal][Cha][Aib]NK[Aib]TRQR[Cha]-NH2; SMILES CC(C)C[C@H](NC(=O)N[C@@H](CCC(N)=O)C(=O)N1CCC[C@@H]1C(=O)N[C@@H](CCCNC(=N)N)C(=O)N[C@@H](Cc1ccncc1)C(=O)N[C@@H](CC1CCCCC1)C(=O)NC(C)(C)C(=O)N[C@@H](CC(N)=O)C(=O)N[C@@H](CCCCN)C(=O)NC(C)(C)C(=O)N[C@H](C(=O)N[C@@H](CCCNC(=N)N)C(=O)N[C@@H](CCC(N)=O)C(=O)N[C@@H](CCCNC(=N)N)C(=O)N[C@@H](CC1CCCCC1)C(N)=O)[C@@H](C)O)C(=O)O) [compound No. 284] | – | 21% |
| 2.2 | 2.5 | [(1S)-1-Carboxy-3-methylbutyl]carbamoyl-[Glu23, D-Pro24, Pya(4)26, Cha27,36, Aib28,31, Lys30]-PYY(23-36) (X4-E[dP]R[4Pal][Cha][Aib]NK[Aib]TRQR[Cha]-NH2; SMILES CC(C)C[C@H](NC(=O)N[C@@H](CCC(=O)O)C(=O)N1CCC[C@@H]1C(=O)N[C@@H](CCCNC(=N)N)C(=O)N[C@@H](Cc1ccncc1)C(=O)N[C@@H](CC1CCCCC1)C(=O)NC(C)(C)C(=O)N[C@@H](CC(N)=O)C(=O)N[C@@H](CCCCN)C(=O)NC(C)(C)C(=O)N[C@H](C(=O)N[C@@H](CCCNC(=N)N)C(=O)N[C@@H](CCC(N)=O)C(=O)N[C@@H](CCCNC(=N)N)C(=O)N[C@@H](CC1CCCCC1)C(N)=O)[C@@H](C)O)C(=O)O) [compound No. 283] | – | 18% |
| 0.78 | 0.94 | [(1S)-1-Carboxyethyl]carbamoyl-[D-Pro24, Pya(4)26, Cha27,36, Aib28,31, Lys30]-PYY(23-36) ({((1S)-1-Carboxyethyl)carbamoyl}-S[dP]R[4Pal][Cha][Aib]NK[Aib]TRQR[Cha]-NH2; SMILES C[C@H](NC(=O)N[C@@H](CO)C(=O)N1CCC[C@@H]1C(=O)N[C@@H](CCCNC(=N)N)C(=O)N[C@@H](Cc1ccncc1)C(=O)N[C@@H](CC1CCCCC1)C(=O)NC(C)(C)C(=O)N[C@@H](CC(N)=O)C(=O)N[C@@H](CCCCN)C(=O)NC(C)(C)C(=O)N[C@H](C(=O)N[C@@H](CCCNC(=N)N)C(=O)N[C@@H](CCC(N)=O)C(=O)N[C@@H](CCCNC(=N)N)C(=O)N[C@@H](CC1CCCCC1)C(N)=O)[C@@H](C)O)C(=O)O) [compound No. 286] | – | 37% |
| 0.52 | 1.3 | [(1S)-1-carboxy-2-hydroxyethyl]carbamoyl-[D-Pro24, Pya(4)26, Cha27,36, Aib28,31, Lys30]-PYY(23-36) (X6-S[dP]R[4Pal][Cha][Aib]NK[Aib]TRQR[Cha]-NH2; SMILES C[C@@H](O)[C@H](NC(=O)C(C)(C)NC(=O)[C@H](CCCCN)NC(=O)[C@H](CC(N)=O)NC(=O)C(C)(C)NC(=O)[C@H](CC1CCCCC1)NC(=O)[C@H](Cc1ccncc1)NC(=O)[C@H](CCCNC(=N)N)NC(=O)[C@H]1CCCN1C(=O)[C@H](CO)NC(=O)N[C@@H](CO)C(=O)O)C(=O)N[C@@H](CCCNC(=N)N)C(=O)N[C@@H](CCC(N)=O)C(=O)N[C@@H](CCCNC(=N)N)C(=O)N[C@@H](CC1CCCCC1)C(N)=O) [compound No. 288] | – | 28% |
| – | – | [D-Hyp24, Iva25, Pya(4)26, Cha27,36, Leu(Me)28, Lys(Ac)30, Aib31]-PYY(23-36) [compound No. 373] | 17.5% | – |
